Marks after values point to notes of the source that are not given here.

The subject of data set [1] is SCC-1 cells. Kind of data set: Growth curves of SCC-1 cells, cell proliferation (MTT) assay, absorbency.
From the text: Cells were counted using a standard MTT assay. In general, each data point represents the average absorbency taken from 10 wells/treatment; error bars represent the S.E.M.
Data set [2] deals with SCC-1 cells. Kind of data set: SCC-1 xenograft in nude mice, tumor growth, survival, termination day measurements (Example 9). Particulars: for latency time to develop visible tumors: controls 7 days; for Incidence of measurable tumor (day 17) / Incidence of measurable tumor (day 13): mice with tumor/N; for Incidence of measurable tumor (day 13): OGF 10 mg/kg daily and/or paclitaxel 8 mg/kg every other day i.p.; for Metastases: spleen, liver, lymph nodes. An excerpt:
Male 4 week old nu/nu nude mice purchased from Harlan Laboratories (Indianapolis, Ind.) were housed in pathogen-free isolators in the Department of Comparative Medicine at the Penn State University College of Medicine. All procedures were approved by the IACUC committee of the Penn State University College of Medicine and conformed to the guidelines established by NIH. Mice were allowed 48 hr to acclimate prior to beginning experimentation.
Tumor cells were inoculated into nude mice by subcutaneous injection into the right scapular region. Subcutaneous injections were performed with at least 2×10^6 cells per mouse; mice were not anesthetized for this procedure.
Dosages were selected based on published reports. […] Injections of drugs were initiated 1 hr after tumor cell inoculation. […] Mice were weighed weekly to determine drug dosage.
Mice were observed daily for the presence of tumors. The latency for a visible tumor to appear, and the time until tumors were measurable (i.e., 62.5 mm^3), were recorded. Tumors were measured using calipers every day. Tumor volume was calculated using the formula w^2×1×π/6, where the length is the longest dimension, and width is the dimension perpendicular to length.
According to institutional policies and IACUC guidelines, mice were terminated when tumors became ulcerated, or tumors grew to 2 cm in diameter. […] Tumors and spleens were removed and weighed, and the lymph nodes, liver, and spleen examined for metastases.

Data set [3] has as its system SCC-1 cells. As to the kind of experiment: DNA synthesis, BrdU incorporation into SCC-1 cells. Particulars: 3 days of drug treatment. Type of data set: cell-based, human. On the procedure: To examine DNA synthesis, SCC-1 cells were seeded onto 22 mm diameter coverglasses placed in 6-well plates (3×10^3 cells/coverglass). […] Three hours prior to fixing cells, 30 μM BrdU was added to cultures. At appropriate times, cells were rinsed, fixed in 10% neutral buffered formalin, and stained with antibodies to BrdU (Roche, Indianapolis, Ind.). The number of positive cells was recorded using fluorescence microscopy. At least 1000 cells/treatment at each time were counted.
(Incorporation of labelled thymidine or its analogues reports DNA synthesis.)

The target in the next data set is T1, OGFr (Homo sapiens, UniProt Q9NZT2).
T1 construct: Tumor tissues from some mice in each treatment group were removed at the time of death; from tissue; host or cells: SCC-1 squamous cell carcinoma xenograft tumors grown subcutaneously in nude mice
T1 sequence (Q9NZT2 1-677): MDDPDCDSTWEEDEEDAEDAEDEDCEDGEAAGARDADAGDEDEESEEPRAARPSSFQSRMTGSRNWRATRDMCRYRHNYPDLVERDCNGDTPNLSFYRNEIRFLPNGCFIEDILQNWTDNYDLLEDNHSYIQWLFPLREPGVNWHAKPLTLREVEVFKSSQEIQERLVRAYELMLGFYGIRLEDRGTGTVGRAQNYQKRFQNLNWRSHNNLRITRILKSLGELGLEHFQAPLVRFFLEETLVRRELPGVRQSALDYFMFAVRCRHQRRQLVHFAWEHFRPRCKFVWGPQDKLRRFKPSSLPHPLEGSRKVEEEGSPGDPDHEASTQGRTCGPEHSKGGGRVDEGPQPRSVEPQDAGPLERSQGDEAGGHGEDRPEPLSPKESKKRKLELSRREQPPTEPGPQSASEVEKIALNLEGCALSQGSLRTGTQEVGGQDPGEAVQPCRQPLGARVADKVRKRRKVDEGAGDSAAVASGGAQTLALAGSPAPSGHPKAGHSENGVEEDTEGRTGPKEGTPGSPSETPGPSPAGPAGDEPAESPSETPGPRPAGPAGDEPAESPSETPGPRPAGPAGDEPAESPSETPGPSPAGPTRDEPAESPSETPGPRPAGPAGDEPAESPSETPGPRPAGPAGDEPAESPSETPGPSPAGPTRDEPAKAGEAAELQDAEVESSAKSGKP
Kind of data set: Receptor binding analysis of OGFr in SCC-1 tumors from treated mice. As to conditions: OGFr in SCC-1 tumors from mice of the treatment group; means ± SEM. The method, then:
Tumor tissues from some mice in each treatment group were removed at the time of death, washed free of blood and connective tissue, and immediately frozen in liquid nitrogen. Tissues were assayed following the procedures published previously [ 16]. Saturation binding isotherms were generated using GraphPad Prism software; binding affinity (Kd) and capacity (Bmax) values were provided by the computer software.

The subject of data set [4] is SCC-1 cells. As to the kind of experiment: Apoptosis, caspase-3 activity by flow cytometry in SCC-1 cells. Particulars: for percentage of caspase-3 positive cells: SCC-1, one day of treatment. The class given is cell-based, human. The method, then: Caspase-3-FITC positive staining was used to characterize early stages of apoptosis (29). SCC-1 cells were seeded into 6-well plates and treated with drugs beginning 24 hr later; drugs and media were replaced daily. Cells were harvested after 1, 3 and 6 days of drug treatment, and prepared according to manufacturer's recommendations for FACS analysis (FACS cell sorter with a 15 mW argon ion laser at 488 nm; Becton, Dickinson and Company, Franklin Lakes, N.J.). […] Three samples from each treatment were analyzed at each time point. The percent gated cells recorded by flow cytometry was considered caspase positive.

The mark [5] stands for this setting: 48 h, paclitaxel 10^−7 M and/or OGF 10^−6 M.
Setting [6] is: 72 h, paclitaxel 10^−7 M and/or OGF 10^−6 M.
Where [7] appears, read: 96 h, paclitaxel 10^−7 M and/or OGF 10^−6 M.
Where [8] appears, read: day 50 (paclitaxel group: day each mouse died), means ± SEM.

For [Met^5]-enkephalin [OGF], in the data set on SCC-1 cells [1] (setting [5]), the “decrease in cell number from control levels” value (“decrease in cell number” below) is recorded as 11.9%. Further, the “decrease in cell number” value in the data set on SCC-1 cells [1] (setting [6]) worked out at 6.7%. In the data set on SCC-1 cells [1] (setting [7]), the “decrease in cell number” value was 12.7%. Further, in the data set on SCC-1 cells [2], the “latency time to develop visible tumors” value amounted to 11 days, the “Incidence of measurable tumor (day 17)” value is 8/12, the “Incidence of measurable tumor (day 13)” value was 4/12^a and the Metastases entry is “none”. Further, in the data set with SCC-1 cells [2] (day 13), the “mice with measurable tumors” value turned out to be 33%. The “mice with measurable tumors” value in the data set on SCC-1 cells [2] (day 17) was 66%. Besides, in the data set on SCC-1 cells [2] (day 50), the “tumor volume reduction from control values” was determined as 33%. Further, in the data set with SCC-1 cells [2] (day 50, means ± SEM), the “Tumor Volume, mm^3” value was 2590 ± 364* mm^3 and the “Tumor Weight” value worked out at 1.7 ± 0.2 g. For the same compound, in the data set on SCC-1 cells [2] (means ± SEM), the “Latency to measurable tumor (days)” value is on record as 17.0 ± 1.5^ days and the “Latency to visible tumor (days)” value is given as 11.2 ± 1.5^b days. Besides, the “delay of visible tumors versus controls” value in the data set on SCC-1 cells [2] (p<0.02) is on record as “four-day delay”. The “weights of tumors reduced from control levels” value in the data set with SCC-1 cells [2] (termination day (day 50)) is reported as 29%. Moreover, the “decrease in the number of BrdU positive cells from control levels” value in the data set on SCC-1 cells [3] came out at 61%. Further, the “Bmax, fmol/mg protein” value at OGFr is recorded as 27.2 ± 2.2 fmol/mg protein. Moreover, the “percentage of caspase-3 positive cells” value in the data set with SCC-1 cells [4] is “negligible”.
Take `CC(=O)O[C@H]1C(=O)[C@@]2(C)[C@H]([C@H](OC(=O)c3ccccc3)[C@]3(O)C[C@H](OC(=O)[C@H](O)[C@@H](NC(=O)c4ccccc4)c4ccccc4)C(C)=C1C3(C)C)[C@]1(OC(C)=O)CO[C@@H]1C[C@@H]2O` [paclitaxel]: the “decrease in cell number” value in the data set on SCC-1 cells [1] (24 h, paclitaxel 10^−7 M and/or OGF 10^−6 M) turned out to be 14.2%. For the same compound, the “decrease in cell number” value with SCC-1 cells [1] (setting [5]) is listed as 34.4%. Moreover, the “decrease in cell number” value with SCC-1 cells [1] (setting [6]) worked out at 58%. The “decrease in cell number” value in the data set on SCC-1 cells [1] (setting [7]) is reported as 70%. For the same compound, the “decrease in cell number” value in the data set on SCC-1 cells [1] (96 h, paclitaxel 10^−8 M alone or with OGF 10^−6 M) amounted to 19.3%. The “deaths during the experimental period” value in the data set with SCC-1 cells [2] (50 days) is reported as “only one mouse in this group was alive”. Further, in the data set on SCC-1 cells [2], the “latency time to develop visible tumors” value is “comparable”, the “Incidence of measurable tumor (day 17)” value was 10/12, the “Incidence of measurable tumor (day 13)” value was 8/12 and the Metastases entry is “none”. Besides, the “mice with measurable tumors” value in the data set on SCC-1 cells [2] (day 13) was found to be 66%. In addition, in the data set with SCC-1 cells [2] (day 17), the “mice with measurable tumors” value is given as 83%. Besides, in the data set on SCC-1 cells [2] (setting [8]), the “Body Weight, g” value was 22.6 ± 0.8***+++^^^ g and the “Spleen Weight” value is 243 ± 8 mg. For the same compound, the “mice that had died by day 40” value in the data set with SCC-1 cells [2] (male, nu/nu nude, mouse, in vivo, 8 mg/kg, 40 day) amounted to 75%. Also, the “time within which mice began dying” value in the data set on SCC-1 cells [2] (male, nu/nu nude, mouse, in vivo, 50 days) is ≤ 20 days. Besides, in the data set with SCC-1 cells [2] (means ± SEM), the “Latency to measurable tumor” value is reported as 14.8 ± 1.7 days and the “Latency to visible tumor” value came to 7.4 ± 1.4 days. Besides, in the data set with SCC-1 cells [2] (mouse, in vivo), the “body weight subnormal by” value is listed as 9-10%; the “gross observations and pathological findings” value is “distended abdomens, impacted bowel, and severe body weight loss”. In the data set with SCC-1 cells [3], the “decrease in the number of BrdU positive cells from control levels” value is reported as 24%. For the same compound, the “Bmax, fmol/mg protein” value on OGFr came out at 27.8 ± 1.6 fmol/mg protein. In addition, the “fraction of SCCHN cells apoptotic” value in the data set on SCC-1 cells [4] (6 days of drug exposure) is “over one-half”. Besides, the “percentage of caspase-3 positive cells” value with SCC-1 cells [4] is given as “negligible”.

The values above are taken from US8003630B2, “Combinatorial therapies for the treatment of neoplasias using the opioid growth factor receptor” (The Penn State Research Foundation, priority 2004, dated 2011).
